Assay results published in ChEMBL document CHEMBL5465560, “Selectivity Literature for EUbOPEN Chemogenomic Library” (2024).

Assays:
[1] = target: T1, MAP kinase-activated protein kinase 2 (Homo sapiens, UniProt P49137); assay: Selectivity interaction (Kinase panel (33PanQinase(R) Activity Assay)) EUB0000877a MAPKAPK2
[2] = target: Proto-oncogene tyrosine-protein kinase ROS (Homo sapiens) (UniProt P08922); assay: Selectivity interaction (KinomeScan (DiscoverX)) EUB0000607a ROS1; conditions: at 10 µM
[3] = tested on: Tyrosine-protein kinase ABL1 (Homo sapiens), P00519 [F317I]; assay: Selectivity interaction (KinomeScan (DiscoverX)) EUB0000607a ABL1; conditions: at 10 µM
[4] = target: Serine/threonine-protein kinase pim-1 (Homo sapiens, UniProt P11309); assay: Selectivity interaction (Upstate Kinase Profiler service (Millipore)) EUB0000056c PIM1; conditions: at 1 µM
[5] = target: T1, MAP kinase-activated protein kinase 2; conditions: at 10 µM
[6] = target: Calcium/calmodulin-dependent protein kinase type II subunit delta (Homo sapiens) (UniProt Q13557); assay: Selectivity interaction (ActivX KiNativ screen (kinase selectivity in THP-1 cell lysates)) EUB0000639a CAMK2D; assay type: subcellular; conditions: lysate, at 0.2 µM
[7] = target: Tyrosine-protein kinase BTK (Homo sapiens, UniProt Q06187); assay: Selectivity interaction (ActivX KiNativ screen (kinase selectivity in THP-1 cell lysates)) EUB0000639a BTK; assay type: subcellular; conditions: lysate, at 1 µM
[8] = target: Tyrosine-protein kinase ABL2 (Homo sapiens, UniProt P42684); assay: Selectivity interaction (ProQinase) EUB0000171b ABL2
[9] = target: T2, Insulin-like growth factor 1 receptor (Homo sapiens, UniProt P08069); assay: Selectivity interaction (Kinase panel (enzymatic assay)) EUB0000595a IGF1R
[10] = target: Cyclin-dependent kinase 7 (Homo sapiens, UniProt P50613); assay: Selectivity interaction (KinomeScan (DiscoverX)) EUB0001049a CDK7; conditions: at 1 µM
[11] = target: Cyclin-dependent kinase 15 (Homo sapiens) (UniProt Q96Q40); assay: Selectivity interaction (Ambit KINOMEscan and KiNATiv profiling in Jurkat cells) EUB0000090b CDK15; assay type: cell-based; conditions: at 1 µM
[12] = target: T3, Dual specificity mitogen-activated protein kinase kinase 7 (Homo sapiens) (UniProt O14733); assay: Selectivity interaction (KinomeScan (DiscoverX)) EUB0000655a MAP2K7; conditions: at 10 µM
T3 sequence (whole entry): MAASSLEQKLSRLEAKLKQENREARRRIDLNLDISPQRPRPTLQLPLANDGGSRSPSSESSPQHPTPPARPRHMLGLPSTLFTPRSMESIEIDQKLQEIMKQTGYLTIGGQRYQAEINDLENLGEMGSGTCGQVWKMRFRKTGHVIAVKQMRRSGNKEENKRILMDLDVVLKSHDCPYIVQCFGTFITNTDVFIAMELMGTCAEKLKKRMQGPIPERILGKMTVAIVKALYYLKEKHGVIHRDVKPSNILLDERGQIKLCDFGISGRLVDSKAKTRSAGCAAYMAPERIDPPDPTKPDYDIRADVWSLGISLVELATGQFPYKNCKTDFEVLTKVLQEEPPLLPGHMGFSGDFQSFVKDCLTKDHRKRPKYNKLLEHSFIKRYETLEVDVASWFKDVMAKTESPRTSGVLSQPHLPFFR

[13] = target: Phosphatidylinositol 4,5-bisphosphate 3-kinase catalytic subunit gamma isoform (Homo sapiens) (UniProt P48736); assay: Selectivity interaction (KinomeScan (DiscoverX)) EUB0000655a PIK3CG; conditions: at 10 µM
[14] = target: Tyrosine-protein kinase Lck (Homo sapiens, UniProt P06239); assay: Selectivity interaction (KinomeScan (DiscoverX)) EUB0000655a LCK; conditions: at 10 µM
[15] = target: cAMP-dependent protein kinase catalytic subunit beta (Homo sapiens) (UniProt P22694); assay: Selectivity interaction (KinomeScan (DiscoverX)) EUB0000045b PRKACB
[16] = target: Serine/threonine-protein kinase 38-like (Homo sapiens) (UniProt Q9Y2H1); assay: Selectivity interaction (KinomeScan (DiscoverX)) EUB0001079a STK38L; conditions: at 1 µM
[17] = target: T2, Insulin-like growth factor 1 receptor; assay: Selectivity interaction (KinomeScan (DiscoverX)) EUB0001079a IGF1R; conditions: at 1 µM
[18] = target: Tyrosine-protein kinase Blk (Homo sapiens) (UniProt P51451); assay: Selectivity interaction (KinomeScan (DiscoverX)) EUB0000229b BLK; conditions: at 10 µM
[19] = target: Tyrosine-protein kinase FRK (Homo sapiens) (UniProt P42685); assay: Selectivity interaction (KinomeScan (DiscoverX)) EUB0000229b FRK; conditions: at 10 µM
[20] = target: Calcium/calmodulin-dependent protein kinase type 1 (Homo sapiens) (UniProt Q14012); assay: Selectivity interaction (KinomeScan (DiscoverX)) EUB0000092b CAMK1; conditions: at 10 µM
[21] = target: T4, Serine/threonine-protein kinase Sgk3 (Homo sapiens) (UniProt Q96BR1); assay: Selectivity interaction (KinomeScan (DiscoverX)) EUB0000618a SGK3; conditions: at 10 µM
T4 sequence (whole entry): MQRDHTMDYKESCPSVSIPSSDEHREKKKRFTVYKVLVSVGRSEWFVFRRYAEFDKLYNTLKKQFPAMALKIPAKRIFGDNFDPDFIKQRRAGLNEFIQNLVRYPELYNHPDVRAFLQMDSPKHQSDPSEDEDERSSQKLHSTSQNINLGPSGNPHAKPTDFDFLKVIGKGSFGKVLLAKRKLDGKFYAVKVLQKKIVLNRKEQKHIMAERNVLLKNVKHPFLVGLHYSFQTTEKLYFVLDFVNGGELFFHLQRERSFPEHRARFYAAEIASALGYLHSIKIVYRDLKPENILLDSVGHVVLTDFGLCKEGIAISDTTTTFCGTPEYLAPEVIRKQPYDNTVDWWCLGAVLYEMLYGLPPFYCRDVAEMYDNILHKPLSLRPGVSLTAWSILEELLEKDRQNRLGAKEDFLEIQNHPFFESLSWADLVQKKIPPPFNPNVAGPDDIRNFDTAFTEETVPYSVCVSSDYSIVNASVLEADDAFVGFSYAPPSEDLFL

[22] = target: Tyrosine-protein kinase SYK (Homo sapiens, UniProt P43405); assay: Selectivity interaction (KinomeScan (DiscoverX)) EUB0001619a SYK; conditions: at 1 µM
[23] = target: Receptor tyrosine-protein kinase erbB-3 (Homo sapiens) (UniProt P21860); assay: Selectivity interaction (KinomeScan (DiscoverX)) EUB0001619a ERBB3; conditions: at 1 µM

T2 sequence (P08069 31-736 limits assumed): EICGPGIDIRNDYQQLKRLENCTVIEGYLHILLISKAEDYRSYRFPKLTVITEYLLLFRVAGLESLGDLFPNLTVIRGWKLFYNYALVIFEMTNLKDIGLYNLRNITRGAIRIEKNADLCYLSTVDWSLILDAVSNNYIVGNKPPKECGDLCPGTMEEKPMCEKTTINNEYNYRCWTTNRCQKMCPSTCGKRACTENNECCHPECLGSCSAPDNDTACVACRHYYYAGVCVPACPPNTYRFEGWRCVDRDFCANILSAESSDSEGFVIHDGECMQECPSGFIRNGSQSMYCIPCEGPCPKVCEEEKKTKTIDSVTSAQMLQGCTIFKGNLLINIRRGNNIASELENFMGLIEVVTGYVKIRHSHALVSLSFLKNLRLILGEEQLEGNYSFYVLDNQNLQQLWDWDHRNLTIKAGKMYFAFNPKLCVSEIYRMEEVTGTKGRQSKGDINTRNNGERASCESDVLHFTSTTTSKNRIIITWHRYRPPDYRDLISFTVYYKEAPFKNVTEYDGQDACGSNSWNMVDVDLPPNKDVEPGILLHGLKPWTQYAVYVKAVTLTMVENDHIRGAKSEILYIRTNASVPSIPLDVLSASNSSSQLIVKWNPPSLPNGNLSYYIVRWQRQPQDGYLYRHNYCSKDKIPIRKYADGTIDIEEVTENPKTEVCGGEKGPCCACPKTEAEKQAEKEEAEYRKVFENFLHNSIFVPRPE
T2 sequence (P08069 741-1367 limits assumed): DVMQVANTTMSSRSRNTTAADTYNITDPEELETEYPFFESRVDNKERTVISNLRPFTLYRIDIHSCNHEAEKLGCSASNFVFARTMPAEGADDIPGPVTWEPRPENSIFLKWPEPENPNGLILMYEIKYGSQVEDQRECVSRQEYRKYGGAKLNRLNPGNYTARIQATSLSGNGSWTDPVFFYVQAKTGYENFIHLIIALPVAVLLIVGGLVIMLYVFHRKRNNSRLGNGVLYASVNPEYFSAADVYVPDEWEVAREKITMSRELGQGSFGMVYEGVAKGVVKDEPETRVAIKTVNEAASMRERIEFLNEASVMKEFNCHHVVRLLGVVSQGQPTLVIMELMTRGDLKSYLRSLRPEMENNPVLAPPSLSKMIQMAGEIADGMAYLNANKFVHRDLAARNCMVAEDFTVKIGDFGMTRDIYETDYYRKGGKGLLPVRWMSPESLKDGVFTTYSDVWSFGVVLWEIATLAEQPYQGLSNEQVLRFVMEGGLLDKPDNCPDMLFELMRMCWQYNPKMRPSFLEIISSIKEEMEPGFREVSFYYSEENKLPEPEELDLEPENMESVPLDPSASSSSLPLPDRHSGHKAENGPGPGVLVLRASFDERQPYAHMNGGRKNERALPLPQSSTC
Sequence of Tyrosine-protein kinase ABL2 (P42684 whole entry): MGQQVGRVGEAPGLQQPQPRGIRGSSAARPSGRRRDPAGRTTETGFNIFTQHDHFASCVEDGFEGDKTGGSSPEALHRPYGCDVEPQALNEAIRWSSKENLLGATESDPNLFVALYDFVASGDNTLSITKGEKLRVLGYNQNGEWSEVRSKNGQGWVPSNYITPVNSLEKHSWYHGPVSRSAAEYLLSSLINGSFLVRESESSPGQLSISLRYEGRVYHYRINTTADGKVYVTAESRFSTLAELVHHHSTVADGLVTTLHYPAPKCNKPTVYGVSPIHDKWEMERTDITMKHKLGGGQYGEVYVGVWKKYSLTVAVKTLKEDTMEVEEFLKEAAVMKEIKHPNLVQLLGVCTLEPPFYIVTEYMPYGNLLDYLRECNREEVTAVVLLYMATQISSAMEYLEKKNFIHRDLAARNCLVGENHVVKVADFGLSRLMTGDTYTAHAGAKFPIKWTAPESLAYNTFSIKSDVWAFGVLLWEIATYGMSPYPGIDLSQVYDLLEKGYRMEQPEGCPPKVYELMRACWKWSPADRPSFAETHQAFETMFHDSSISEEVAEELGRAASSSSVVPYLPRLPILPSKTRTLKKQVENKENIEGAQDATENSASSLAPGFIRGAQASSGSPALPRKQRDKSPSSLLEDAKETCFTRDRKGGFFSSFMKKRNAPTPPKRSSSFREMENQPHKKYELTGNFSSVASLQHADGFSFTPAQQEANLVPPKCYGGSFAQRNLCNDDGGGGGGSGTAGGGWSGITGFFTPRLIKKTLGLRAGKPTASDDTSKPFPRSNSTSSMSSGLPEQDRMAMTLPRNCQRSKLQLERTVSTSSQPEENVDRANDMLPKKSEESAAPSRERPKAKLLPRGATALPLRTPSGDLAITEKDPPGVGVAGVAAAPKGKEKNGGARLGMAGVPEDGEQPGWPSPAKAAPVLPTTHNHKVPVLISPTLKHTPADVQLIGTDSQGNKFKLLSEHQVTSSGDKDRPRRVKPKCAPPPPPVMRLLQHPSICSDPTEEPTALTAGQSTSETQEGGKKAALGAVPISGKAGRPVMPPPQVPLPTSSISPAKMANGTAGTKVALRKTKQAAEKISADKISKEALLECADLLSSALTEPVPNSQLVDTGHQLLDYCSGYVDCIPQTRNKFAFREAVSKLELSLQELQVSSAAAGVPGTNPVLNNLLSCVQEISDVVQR
Sequence of Tyrosine-protein kinase Lck (P06239 2-509 limits assumed): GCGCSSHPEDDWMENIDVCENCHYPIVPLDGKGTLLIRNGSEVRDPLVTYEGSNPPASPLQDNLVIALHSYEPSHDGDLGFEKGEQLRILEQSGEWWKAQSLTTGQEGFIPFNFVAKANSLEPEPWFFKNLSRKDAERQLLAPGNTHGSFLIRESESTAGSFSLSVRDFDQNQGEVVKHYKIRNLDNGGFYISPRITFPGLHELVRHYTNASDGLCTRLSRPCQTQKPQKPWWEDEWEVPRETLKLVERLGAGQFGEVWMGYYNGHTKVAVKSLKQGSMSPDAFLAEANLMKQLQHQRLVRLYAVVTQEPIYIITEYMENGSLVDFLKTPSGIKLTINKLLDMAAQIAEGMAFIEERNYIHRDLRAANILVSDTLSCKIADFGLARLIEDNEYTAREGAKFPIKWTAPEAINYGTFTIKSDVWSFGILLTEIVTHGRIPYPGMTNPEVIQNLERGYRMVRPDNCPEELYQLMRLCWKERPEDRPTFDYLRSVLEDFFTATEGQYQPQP
Sequence of Tyrosine-protein kinase BTK (Q06187 whole entry): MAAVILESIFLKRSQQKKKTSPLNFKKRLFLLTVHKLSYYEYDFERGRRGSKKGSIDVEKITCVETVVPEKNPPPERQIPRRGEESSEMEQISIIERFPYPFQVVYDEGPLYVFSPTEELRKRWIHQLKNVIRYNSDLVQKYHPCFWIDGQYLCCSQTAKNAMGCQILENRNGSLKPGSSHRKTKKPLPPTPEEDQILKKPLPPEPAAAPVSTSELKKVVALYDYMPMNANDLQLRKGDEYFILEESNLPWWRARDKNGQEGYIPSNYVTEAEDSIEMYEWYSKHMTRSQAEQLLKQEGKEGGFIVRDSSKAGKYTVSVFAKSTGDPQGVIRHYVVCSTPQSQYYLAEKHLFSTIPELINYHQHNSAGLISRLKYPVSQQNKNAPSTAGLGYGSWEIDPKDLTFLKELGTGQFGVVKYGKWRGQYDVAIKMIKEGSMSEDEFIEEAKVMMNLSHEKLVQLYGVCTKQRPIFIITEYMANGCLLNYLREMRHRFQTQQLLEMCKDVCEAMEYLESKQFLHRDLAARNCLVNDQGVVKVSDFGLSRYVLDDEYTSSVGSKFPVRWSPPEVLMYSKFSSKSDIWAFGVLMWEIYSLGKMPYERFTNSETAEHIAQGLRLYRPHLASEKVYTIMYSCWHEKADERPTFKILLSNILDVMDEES
Sequence of Phosphatidylinositol 4,5-bisphosphate 3-kinase catalytic subunit gamma isoform (Homo sapiens) (P48736 whole entry, looked up, canonical isoform): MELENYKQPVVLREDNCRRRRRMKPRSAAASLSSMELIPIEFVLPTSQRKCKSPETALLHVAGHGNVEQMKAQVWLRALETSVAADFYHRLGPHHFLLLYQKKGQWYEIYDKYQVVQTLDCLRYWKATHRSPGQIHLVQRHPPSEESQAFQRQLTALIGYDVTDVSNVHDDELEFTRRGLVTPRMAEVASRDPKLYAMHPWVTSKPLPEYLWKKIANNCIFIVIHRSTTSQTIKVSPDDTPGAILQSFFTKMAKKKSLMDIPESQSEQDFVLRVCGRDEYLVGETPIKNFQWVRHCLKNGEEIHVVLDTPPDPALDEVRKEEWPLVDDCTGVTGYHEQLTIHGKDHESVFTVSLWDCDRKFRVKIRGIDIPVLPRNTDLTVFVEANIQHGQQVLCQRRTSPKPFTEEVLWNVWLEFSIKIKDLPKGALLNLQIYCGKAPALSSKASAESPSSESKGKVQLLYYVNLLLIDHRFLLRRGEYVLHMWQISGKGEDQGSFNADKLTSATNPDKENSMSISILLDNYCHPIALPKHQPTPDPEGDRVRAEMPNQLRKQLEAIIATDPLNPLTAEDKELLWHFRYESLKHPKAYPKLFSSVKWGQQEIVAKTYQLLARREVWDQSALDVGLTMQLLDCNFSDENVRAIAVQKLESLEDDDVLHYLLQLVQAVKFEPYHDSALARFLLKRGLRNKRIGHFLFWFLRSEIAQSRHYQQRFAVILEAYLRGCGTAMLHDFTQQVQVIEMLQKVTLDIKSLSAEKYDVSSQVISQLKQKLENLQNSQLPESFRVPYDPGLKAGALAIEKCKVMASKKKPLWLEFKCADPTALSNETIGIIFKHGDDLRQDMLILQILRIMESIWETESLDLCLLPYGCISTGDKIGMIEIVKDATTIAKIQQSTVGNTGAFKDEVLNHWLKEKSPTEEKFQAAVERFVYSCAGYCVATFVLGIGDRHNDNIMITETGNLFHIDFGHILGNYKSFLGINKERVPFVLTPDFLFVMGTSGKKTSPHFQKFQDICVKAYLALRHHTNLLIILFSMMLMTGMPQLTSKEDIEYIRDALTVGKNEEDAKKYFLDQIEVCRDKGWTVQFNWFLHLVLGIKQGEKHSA

CCC(=O)N1CC[C@H](Nc2ncnc3c2CN(c2cnc(OC)c(C(F)(F)F)c2)CC3)C1 [LENIOLISIB]
IC50 [1]: > 10 µM

CNC(=O)Nc1ccc(-c2nc(N3CC4CCC(C3)O4)c3cnn(C4CCC5(CC4)OCCO5)c3n2)cc1
% of control [2]: 81%
% of control [3]: 100%

Cc1ccc(-c2ccc3c(ccc4sc5c(c43)NC[C@@H](C)NC5=O)n2)cn1
% of inhibition [4]: 89%

CCN(CC)CCCCNc1ncc2cc(-c3cc(OC)cc(OC)c3)c(NC(=O)NC(C)(C)C)nc2n1
% of control [5]: 100%

CC[C@@H]1[C@H](F)C(=O)N[C@@H]1COc1nccc2cc(C(N)=O)c(OC)cc12 [ZIMLOVISERTIB]
% of inhibition [6]: 6.9%
% of inhibition [7]: -7.2%

C=CC(=O)Nc1cccc(C(=O)Nc2ccc(Nc3cc(-c4[nH]c(SC)nc4C)ccn3)cc2)c1
% of control ([8]; at 1 µM): 74%
% of control ([8]; at 5 µM): 84%

COCC(=O)NC/C=C/c1ccc2ncnc(Nc3ccc(Oc4ccc(C)nc4)c(C)c3)c2c1 [CP-724714]
IC50 [9]: > 10 µM

COc1cc(Nc2nc(C)cc(-c3cnn4nc(OC)ccc34)n2)cc(C(F)(F)F)c1
% of control [10]: 73%

CN(C)C/C=C/C(=O)Nc1ccc(C(=O)N2CCCC(Nc3ncc(Cl)c(-c4c[nH]c5ccccc45)n3)C2)cc1 (stereo not given)
% of control [11]: 73%

CN(C)CCOc1ccc(-c2nc(-c3ccncc3)c(-c3ccc4c(c3)CC/C4=N\O)[nH]2)cc1
% of control [12]: 94%
% of control [13]: 84%
% of control [14]: 29%

C=CC(=O)Nc1cc(-n2c(=O)ccc3cnc4ccc(-c5ccc(NS(C)(=O)=O)cc5)cc4c32)ccc1C
% of control ([15]; at 1 µM): 79%
% of control ([15]; at 10 µM): 100%

Nc1cnc(N2CCc3cc(S(=O)(=O)Nc4c(F)cc(Cl)cc4F)cc(N4CCCC4=O)c32)nc1 [TP-020n]
% of control [16]: 42%
% of control [17]: 90%

COc1cc(N(C)c2ccnc3ccc(C(F)(F)F)cc23)cc(OC)c1OC
% binding [18]: 100%
% binding [19]: 95%

CCC(=O)N1CCN(c2ccc(-n3c(=O)ccc4cnc5ccc(-c6cnc7ccccc7c6)cc5c43)cc2C(F)(F)F)CC1
% of control [20]: 50%

O[C@H]1CC[C@H](Nc2ncc3nc(Nc4c(F)cc(F)cc4F)n([C@H]4CCOC4)c3n2)CC1
% of control [21]: 100%

N#Cc1cccc(-c2c[nH]c3ncnc(N4CCOCC4)c23)c1
% of control [22]: 100%
% of control [23]: 51%
